Laboratory results published in patent US20250326769A1, “HETEROAROMATIC MACROCYCLIC ETHER CHEMOTHERAPEUTIC AGENTS” (Nuvalent, Inc., priority 2022, published 2025).

Tests used:
ALK I1171N/D1203N = ALK I1171N/D1203N (Homo sapiens (Human), UniProt Q9UM73, D1203N/I1171N); test: Biochemical kinase assay, ALK I1171N/D1203N; settings: apparent inhibitory constant, kinase domain, Morrison equation; read-out: ALK-I1171N-D1203N Ki^app
Experimental: (§1) First, 250 nL of compound dissolved in DMSO (100-fold of the desired concentration) was dispensed into a 384-well plate. A 12.5 μL substrate solution containing ATP (2 mM) and fluorogenic phosphorylation substrate AQT0101 ([…] for ALK and ROS, AssayQuant) or AQT0104 (26 μM for TRKB, AssayQuant) in buffer (50 mM HEPES pH 7.5, […], 0.5 mM EGTA, 10 mM MgCl2) was added and mixed thoroughly. Then, a 12.5 μL kinase solution containing ALK (1.5 nM, Carna, 08-518), ALK I1171N/D1203N (4 nM, SignalChem, custom-made), ROS1 (0.6 nM, Carma, 08-163), ROS1-G2032R (0.5 nM, SignalChem, R14-121BG), or TRKB-wt (1.5 nM, SignalChem, N17-11G) kinase domains in buffer ([…] pH 7.5, 0.01% Brij-[…], 0.4 mg/mL BSA, 0.5 mM EGTA, and 10 mM MgCl2) was added and mixed thoroughly. The plate was sealed and read by SpectraMax Paradigm at λ=485 nm every 2 minutes for 120 minutes at 30° C. Initial rates of reaction (v) were calculated from the change in fluorescence intensity over time during the initial, linear portion of the reaction. Finally, apparent inhibitory constants (Ki^app) were determined from regression of v and I (inhibitor concentration) to Morrison Equation (E=enzyme concentration): […]
(§2) Compound potency can be interpreted by binning Ki^app values against the targets: bin A for high potency, Ki^app<50 nM; bin B for medium potency, 50 nM≤Ki^app<500 nM; and bin C for low potency, Ki^app≥500 nM. […] “nd” means not determined.

TRKB-wt = TRKB-wt (Homo sapiens (Human), UniProt Q16620); test: Biochemical kinase assay, TRKB-wt; settings: apparent inhibitory constant, kinase domain, Morrison equation; read-out: TRKB-wt Ki^app
TRKB-wt, sequence (Q16620 538-807): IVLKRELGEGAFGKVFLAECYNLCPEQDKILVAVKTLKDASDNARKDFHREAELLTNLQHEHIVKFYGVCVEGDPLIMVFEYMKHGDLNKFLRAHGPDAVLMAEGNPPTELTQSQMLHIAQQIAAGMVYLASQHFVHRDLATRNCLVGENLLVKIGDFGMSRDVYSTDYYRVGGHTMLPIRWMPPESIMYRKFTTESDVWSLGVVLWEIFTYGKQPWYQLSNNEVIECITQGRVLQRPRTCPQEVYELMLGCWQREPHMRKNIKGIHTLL
Experimental: as §1, §2

[1] = target: Ba/F3 EML4-ALK v1 I1171N/D1203N (Homo sapiens (Human), UniProt Q9HC35+Q9UM73, D1203N/I1171N); test: Ba/F3 cell proliferation assay, EML4-ALK v1 I1171N/D1203N; assay type: cell-based; settings: for IC50: Ba/F3 stable cells, 72 hours, CellTiter-Glo; for ETV6-TRKB / EML4-ALK v1 I1171N/D1203N / Selectivity for Ba/F3 EML4-ALK v1 I1171N-D1203N IC50 over Ba/F3 ETV6-TRKB IC50: TRKB selectivity, ratio of Ba/F3 IC50 values; for Selectivity for Ba/F3 EML4-ALK v1 I1171N-D1203N IC50 over Ba/F3 ETV6-TRKB IC50: Table 6 bins
Ba/F3 EML4-ALK v1 I1171N/D1203N, sequence (Q9UM73 other isoform, or with tags, fused parts or gaps I1171N/D1203N): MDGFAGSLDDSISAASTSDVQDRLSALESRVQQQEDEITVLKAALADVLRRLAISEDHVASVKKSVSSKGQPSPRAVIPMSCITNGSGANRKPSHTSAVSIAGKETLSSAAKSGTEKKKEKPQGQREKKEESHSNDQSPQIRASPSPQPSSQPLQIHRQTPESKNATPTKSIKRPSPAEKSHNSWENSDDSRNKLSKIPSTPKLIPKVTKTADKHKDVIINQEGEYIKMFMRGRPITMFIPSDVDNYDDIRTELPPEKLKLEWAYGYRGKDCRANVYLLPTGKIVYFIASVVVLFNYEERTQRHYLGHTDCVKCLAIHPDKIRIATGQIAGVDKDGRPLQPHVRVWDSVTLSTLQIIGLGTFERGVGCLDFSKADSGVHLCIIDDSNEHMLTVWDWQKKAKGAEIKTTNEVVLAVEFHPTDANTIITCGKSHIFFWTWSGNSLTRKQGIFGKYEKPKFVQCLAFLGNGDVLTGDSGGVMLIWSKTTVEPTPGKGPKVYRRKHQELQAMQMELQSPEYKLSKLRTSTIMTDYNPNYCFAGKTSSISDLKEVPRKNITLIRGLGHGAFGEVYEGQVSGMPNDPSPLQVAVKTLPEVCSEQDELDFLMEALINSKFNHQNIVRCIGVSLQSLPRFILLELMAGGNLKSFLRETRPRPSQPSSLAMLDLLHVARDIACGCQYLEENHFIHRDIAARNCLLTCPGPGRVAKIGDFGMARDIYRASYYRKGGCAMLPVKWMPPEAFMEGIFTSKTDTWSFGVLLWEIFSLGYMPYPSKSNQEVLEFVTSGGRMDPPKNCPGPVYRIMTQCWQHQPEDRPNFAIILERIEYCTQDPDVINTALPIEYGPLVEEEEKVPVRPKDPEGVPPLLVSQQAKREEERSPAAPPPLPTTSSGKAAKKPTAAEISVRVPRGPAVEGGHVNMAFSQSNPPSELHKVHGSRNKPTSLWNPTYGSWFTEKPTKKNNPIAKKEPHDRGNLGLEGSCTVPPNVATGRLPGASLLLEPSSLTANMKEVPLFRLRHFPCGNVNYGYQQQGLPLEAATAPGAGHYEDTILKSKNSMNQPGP
Outline: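 Viability read by CellTiter-Glo luminescence after 72 h exposure to a 3-fold compound dilution series, with IC50 from four-parameter logistic regression. Cells were Ba/F3 rendered IL-3-independent through retroviral expression of EML4-ALK v1 I1171N/D1203N, puromycin-selected.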

Ba/F3 ETV6-TRKB = Ba/F3 ETV6-TRKB (Homo sapiens, UniProt Q16620); test: Ba/F3 cell proliferation assay, ETV6-TRKB; assay type: cell-based; settings: Ba/F3 stable cells, 72 hours, CellTiter-Glo; read-out: ETV6-TRKB IC50
Ba/F3 ETV6-TRKB, sequence (Q16620 32-822 limits assumed, change not shown): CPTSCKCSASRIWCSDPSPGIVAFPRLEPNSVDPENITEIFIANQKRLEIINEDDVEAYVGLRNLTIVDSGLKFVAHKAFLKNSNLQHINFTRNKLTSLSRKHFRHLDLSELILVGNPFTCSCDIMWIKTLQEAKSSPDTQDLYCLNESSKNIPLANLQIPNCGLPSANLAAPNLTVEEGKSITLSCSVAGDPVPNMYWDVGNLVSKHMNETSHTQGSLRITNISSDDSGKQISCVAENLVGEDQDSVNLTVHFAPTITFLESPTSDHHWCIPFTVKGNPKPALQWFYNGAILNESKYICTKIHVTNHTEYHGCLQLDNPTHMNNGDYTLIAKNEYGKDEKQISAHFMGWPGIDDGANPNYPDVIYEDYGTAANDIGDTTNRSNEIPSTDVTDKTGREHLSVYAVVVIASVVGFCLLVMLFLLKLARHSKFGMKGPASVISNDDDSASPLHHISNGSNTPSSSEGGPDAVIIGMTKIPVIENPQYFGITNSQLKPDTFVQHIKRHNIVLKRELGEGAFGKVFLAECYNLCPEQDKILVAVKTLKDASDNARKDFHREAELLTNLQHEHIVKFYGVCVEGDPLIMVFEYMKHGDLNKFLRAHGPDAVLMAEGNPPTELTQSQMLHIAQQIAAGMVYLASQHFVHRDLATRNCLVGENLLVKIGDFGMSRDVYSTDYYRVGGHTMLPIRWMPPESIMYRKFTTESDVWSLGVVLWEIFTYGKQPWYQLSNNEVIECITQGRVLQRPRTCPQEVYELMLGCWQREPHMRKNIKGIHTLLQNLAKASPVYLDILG
Outline: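 Growth inhibition after 72 h compound exposure (3-fold series) was measured by CellTiter-Glo in IL-3-independent Ba/F3 cells stably expressing ETV6-TRKB. A four-parameter logistic fit of percent inhibition versus concentration gave IC50.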

ALK I1171N/D1203N, sequence (Q9UM73 1116-1392 I1171N/D1203N): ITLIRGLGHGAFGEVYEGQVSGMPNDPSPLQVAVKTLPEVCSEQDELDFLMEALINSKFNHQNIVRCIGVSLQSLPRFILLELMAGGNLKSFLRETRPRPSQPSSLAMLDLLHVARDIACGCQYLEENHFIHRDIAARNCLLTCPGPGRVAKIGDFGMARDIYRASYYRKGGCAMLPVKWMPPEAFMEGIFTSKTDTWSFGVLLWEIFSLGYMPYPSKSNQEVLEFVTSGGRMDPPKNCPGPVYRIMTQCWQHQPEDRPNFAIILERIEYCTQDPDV

Ki (ALK I1171N/D1203N) | Ki (TRKB-wt) | IC50 [1] | IC50 (Ba/F3 ETV6-TRKB) | Compound | ETV6-TRKB / EML4-ALK v1 I1171N/D1203N [1] | Selectivity for Ba/F3 EML4-ALK v1 I1171N-D1203N IC50 over Ba/F3 ETV6-TRKB IC50 [1]
< 0.05 µM | 0.05 to 0.5 µM | 0.05 to 0.5 µM | > 0.5 µM | C[C@H]1Oc2cc(cnc2N)-c2c(c(C(N)=O)nn2C2CCC2)Cc2cn(C)nc2-c2ccc(F)cc21 [Example 30, (R)-22-amino-3-cyclobutyl-16-fluoro-10-methyl-19-methyl-20-oxa-3,4,10,11,23-pentaazapentacyclo[19.3.1.0^2,^6.0^8,^12.0^13,^18] pentacosa-1(24),2(6),4,8,11,13,15,17,21(25),22-decaene-5-carboxamide] | B (bin B for high selectivity, ratio≥10-fold but<30) | –
< 0.05 µM | 0.05 to 0.5 µM | 0.0001 to 0.05 µM | > 0.5 µM | CON(C)C(=O)c1nn(CC2CC2)c2c1Cc1cn(C)nc1-c1ccc(F)cc1[C@@H](C)Oc1cc-2cnc1N [Example 34, N-methoxy-N-methyl-(R)-22-amino-3-(cyclopropylmethyl)-16-fluoro-10-methyl-19-methyl-20-oxa-3,4,10,11,23-pentaazapentacyclo[19.3.1.0^2,^6.0^8,^12.0^13,^18]pentacosa-1(24),2(6),4,8,11,13,15,17,21(25),22-decaene-5-carboxamide] | B (bin B for high selectivity, ratio≥10-fold but<30) | –
< 0.05 µM | ≥ 0.5 µM | 0.0001 to 0.05 µM | > 0.5 µM | C[C@H]1Oc2cc(cnc2N)-c2c(c(C(=O)N(C)C)nn2CC2CC2)Oc2cccnc2-c2ccc(F)cc21 [Example 39, N,N-dimethyl-(R)-23-amino-3-(cyclopropylmethyl)-17-fluoro-20-methyl-7,21-dioxa-3,4,12,24-tetraazapentacyclo[20.3.1.0^2,6.0^8,13.0^14,19]hexacosa-1(25),2(6),4,8(13),9,11,14,16,18,22(26),23-undecaene-5-carboxamide] | A (bin A for very high selectivity, ratio≥30-fold) | –
< 0.05 µM | ≥ 0.5 µM | 0.05 to 0.5 µM | > 0.5 µM | C[C@H]1Oc2cc(cnc2N)-c2c(c(C(=O)N(C)C3CC3)nn2CC2CC2)Cc2cn(C)nc2-c2ccc(F)cc21 [Example 40, N-cyclopropyl-N-methyl-(R)-22-amino-3-(cyclopropylmethyl)-16-fluoro-10-methyl-19-methyl-20-oxa-3,4,10,11,23-pontaazapentacyclo[19.3.1.0^2,^6.0^8,^12.0^13,^18]pentacosa-1(24),2(6),4,8,11,13,15,17,21(25),22-decaene-5-carboxamide] | A (bin A for very high selectivity, ratio≥30-fold) | –
< 0.05 µM | < 0.05 µM | 0.0001 to 0.05 µM | 0.0001 to 0.05 µM | CCn1nc(C(=O)N(C)C)c2c1-c1cnc(N)c(c1)O[C@H](C)c1cc(F)ccc1-c1ncccc1C2 [Example 43, N,N-dimethyl-(R)-23-amino-3-ethyl-17-fluoro-20-methyl-21-oxa-3,4,12,24-tetraazapentacyclo[20.3.1.0^2,^6.0^8,^13.0^14,^19]hexacosa-1(25),2(6),4,8(13),9,11,14,16,18,22(26),23-undecaene-5-carboxamide] | B (bin B for high selectivity, ratio≥10-fold but<30) | BB (bin BB for the selectivity with the ratio≥10-fold but<30)

The next lines start with the compound.

Compound | Ki (ALK I1171N/D1203N) | Ki (TRKB-wt) | IC50 [1] | IC50 (Ba/F3 ETV6-TRKB) | ETV6-TRKB / EML4-ALK v1 I1171N/D1203N [1] | Selectivity for Ba/F3 EML4-ALK v1 I1171N-D1203N IC50 over Ba/F3 ETV6-TRKB IC50 [1]
Cc1cc2n(n1)-c1ccc(F)cc1[C@@H](C)Oc1cc(cnc1N)-c1c(nn(C)c1C#N)C2=O [Example 19, (R)-22-amino-16-fluoro-4-methyl-10,19-dimethyl-7-oxo-20-oxa-4,5,11,12,23-pentaazapentacyclo[19.3.1.0^2,^6.0^8,^12.0^13,^18]pentacosa-1(24),2,5,8, 10,13,15,17,21(25),22-decaene-3-carbonitrile] | < 0.05 µM | < 0.05 µM | 0.0001 to 0.05 µM | 0.05 to 0.5 µM | B (bin B for high selectivity, ratio≥10-fold but<30) | –
CSc1nn(CC2CC2)c2c1Cc1cn(C)nc1-c1ccc(F)cc1[C@@H](C)Oc1cc-2cnc1N [Example 56, (R)-3-(cyclopropylmethyl)-16-fluoro-10-methyl-19-methyl-5-(methylthio)-20-oxa-3,4,10,11,23-pentaazapentacyclo[19.3.1.0^2,^6.0^8,^12.0^13,^18]pentacosa-1(25),2(6),4,8,11,13,15,17,21,23-decaen-22-ylamine] | 0.05 to 0.5 µM | ≥ 0.5 µM | 0.05 to 0.5 µM | > 0.5 µM | C (bin C for moderate selectivity, ratio≥1 but<10) | –
Cc1cc2n(n1)-c1ccc(F)cc1[C@@H](C)Oc1cc(cnc1N)-c1c(C#N)nn(C)c1C2=O [Example 18, (R)-22-amino-16-fluoro-5-methyl-10,19-dimethyl-7-oxo-20-oxa-4,5,11,12,23-pentaazapentacyclo[19.3.1.0^2,^6.0^8,^12.0^13,^18]pentacosa-1(24),2(6),3,8,10,13,15,17,21(25),22-decaene-3-carbonitrile] | < 0.05 µM | 0.05 to 0.5 µM | 0.05 to 0.5 µM | > 0.5 µM | C (bin C for moderate selectivity, ratio≥1 but<10) | CC (bin CC for the selectivity with the ratio≥5 but<10)
C[C@H]1Oc2cc(cnc2N)-c2c(c(C(=O)N3CCC(F)(F)C3)nn2CC2CC2)Cc2cn(C)nc2-c2ccc(F)cc21 [Example 12, {(R)-22-amino-3-(cyclopropylmethyl)-16-fluoro-10-methyl-19-methyl-20-oxa-3,4,10,11,23-pentaazapentacyclo[19.3.1.0^2,^6.0^8,^12.013,18]pentacosa-1(24),2(6),4,8,11,13,15,17,21(25),22-decaen-5-yl}(3,3-difluoro-1-pyrrolidinyl)methanone] | < 0.05 µM | ≥ 0.5 µM | 0.05 to 0.5 µM | > 0.5 µM | C (bin C for moderate selectivity, ratio≥1 but<10) | –
CCOC(=O)c1nn(CC2CC2)c2c1Oc1cccnc1-c1ccc(F)cc1[C@@H](C)Oc1cc-2cnc1N [Example 55, ethyl (20R)-23-amino-3-(cyclopropylmethyl)-17-fluoro-20-methyl-7,21-dioxa-3,4,12,24-tetraazapentacyclo[20.3.1.0^2,^6.0^8,^13.0^14,^19]hexacosa-1(25),2(6),4,8(13),9,11,14,16,18,22(26),23-undecaene-5-carboxylate] | < 0.05 µM | ≥ 0.5 µM | 0.05 to 0.5 µM | > 0.5 µM | B (bin B for high selectivity, ratio≥10-fold but<30) | –
C[C@H]1Oc2cc(cnc2N)-c2c(c(C(=O)N3CCCC3)nn2CC2CC2)Cc2cn(C)nc2-c2ccc(F)cc21 [Example 11, {(R)-22-amino-3-(cyclopropylmethyl)-16-fluoro-10-methyl-19-methyl-20-oxa-3,4,10,11,23-pentaazapentacyclo[19.3.1.0^2,^6.0^8,^12.0^13,^18]pentacosa-1(24),2(6),4,8,11,13,15,17,21(25),22-decaen-5-yl}(1-pyrrolidinyl)methanone] | < 0.05 µM | 0.05 to 0.5 µM | 0.05 to 0.5 µM | > 0.5 µM | B (bin B for high selectivity, ratio≥10-fold but<30) | –
C[C@H]1Oc2cc(cnc2N)-c2c(c([S+](C)[O-])nn2CC2CC2)Cc2cn(C)nc2-c2ccc(F)cc21 (stereo partly drawn) [Example 17, (R)-3-(cyclopropylmethyl)-16-fluoro-10-methyl-19-methyl-5-(methylsulfinyl)-20-oxa-3,4,10,11,23-pentaazapentacyclo[19.3.1.0^2,^6.0^8,^12.0^13,^18]pentacosa-1(24),2(6),4,8,11,13,15,17,21(25),22-decaen-22-ylamine] | < 0.05 µM | 0.05 to 0.5 µM | 0.05 to 0.5 µM | > 0.5 µM | C (bin C for moderate selectivity, ratio≥1 but<10) | –
